Data published in PMC3226499, “Environmental Impact on Vascular Development Predicted by High-Throughput Screening” (Environmental Health Perspectives, 2011).
Read-outs that look alike come from different tables or passages of the source.

Columns and labels:
[1] = system: six prioritized vascular targets (VEGFR2, TIE2, CCL2, PAI-1, CXCL10, uPAR); experiment: Vascular bioactivity score (VBS): weighted sum of activity across 23 ToxCast assays; parameters: species or system human; details: for predicted vascular disruption from VBS rank: among all 311 compounds tested
[2] = system: PAI-1; experiment: BioMAP protein readout: PAI-1 up- and down-regulation; type: cell-based, human; details: for PAI-1 up- and down-regulation LEC: lowest effective concentration
Description: (§1) Source data. […] Assays measured direct interactions between chemicals and molecular targets (receptors, enzymes), as well as downstream effects on reporter gene activity or cellular consequences. […] The perturbation scores are a method of aggregating assays into groups and providing a higher-level view of chemical activity across important signaling pathways.
(§2) Identifying pVDCs. Six assay targets emerged as most relevant to embryonic blood vessel formation based on biological plausibility and prevalence in the VasculoDB literature. These targets have been previously identified, based on murine knockout models or significant associations between biomarker data and adverse pregnancy effects, as critical to proper embryonic blood vessel formation or maternal–fetal placental circulation. In order of descending influence (with corresponding references highlighting their importance to vascular development), these were down-regulation of the receptor tyrosine kinase (RTK) VEGFR2 ([Drake et al. 2007]); inhibition of the enzymatic activity of TIE2, an angiogenic RTK ([Patan 1998]); down-regulation of the proangiogenic chemokine CCL2 ([Keeley et al. 2008]); perturbation of the plasminogen-activating system (PAS) controlling extracellular matrix breakdown via up- or down-regulation of plasminogen activator inhibitor type 1 (PAI-1/SERPINE1) ([Behzadian et al. 2003]); up-regulation of the proinflammatory antiangiogenic chemokine CXCL10 ([Romagnani et al. 2001]); and perturbation of the PAS via up- or down-regulation of urokinase-type plasminogen activator receptor (uPAR/PLAUR) ([D’Alessio and Blasi 2009]).
(§3) As predicted, thalidomide and 5HPP-33 were active across most of the pVDC signature assay targets. […] 5HPP-33 also had effects on uPAR in the endothelial cell system at 10 µM. […] Both compounds, however, fell above the mean VBS cutoff and would be classified as pVDCs based on in vitro activity for vascular targets identified by the ToxCast data and chemicals. […] Thus, our findings with reference compounds known to be antiangiogenic support the contention that VBS is an effective metric for vascular disruption.

[3] = system: human umbilical vein endothelial cell; parameters: method as in Noguchi et al. 2005; details: ref Noguchi et al. 2005; cited from earlier work
[4] = system: VEGFR2; experiment: BioMAP protein readout: VEGFR2 down-regulation; type: cell-based, human; details: lowest effective concentration
Description: as §1
(§4) Identifying pVDCs. Six assay targets emerged as most relevant to embryonic blood vessel formation based on biological plausibility and prevalence in the VasculoDB literature. These targets have been previously identified, based on murine knockout models or significant associations between biomarker data and adverse pregnancy effects, as critical to proper embryonic blood vessel formation or maternal–fetal placental circulation. […]

[5] = target: TIE2 (Homo sapiens, UniProt Q02763); experiment: TIE2 cell-free biochemical assay
Description: (§5) The chemical library was run against these assays, as was a repeat of the TIE2 assay from the original data series (Table 2).

[6] = system: CCL2; experiment: BioMAP protein readout: CCL2 down-regulation; type: cell-based, human
Description: as §1, §2, §3

[7] = system: uPAR; experiment: BioMAP protein readout: uPAR up- and down-regulation; type: cell-based, human; details: for uPAR up- and down-regulation LEC: lowest effective concentration
Description: as §1, §2, §3

[8] = system: CXCL10; experiment: BioMAP protein readout: CXCL10 up-regulation; type: cell-based, human
Description: as §1, §4

[9] = system: rat; details: cited from earlier work
[10] = system: rat/rabbit; details: in vivo; cited from earlier work
[11] = system: rat; details: in vivo; cited from earlier work
[12] = system: various species; details: cited from earlier work
[13] = system: mouse; details: cited from earlier work
[14] = target: VEGFR2 (Homo sapiens, UniProt P35968); experiment: VEGFR2 biochemical assay; details: read-out: VEGFR2 AC50; biochemical
Chain of VEGFR2 (Homo sapiens, UniProt P35968) (P35968 20-1356, species assumed): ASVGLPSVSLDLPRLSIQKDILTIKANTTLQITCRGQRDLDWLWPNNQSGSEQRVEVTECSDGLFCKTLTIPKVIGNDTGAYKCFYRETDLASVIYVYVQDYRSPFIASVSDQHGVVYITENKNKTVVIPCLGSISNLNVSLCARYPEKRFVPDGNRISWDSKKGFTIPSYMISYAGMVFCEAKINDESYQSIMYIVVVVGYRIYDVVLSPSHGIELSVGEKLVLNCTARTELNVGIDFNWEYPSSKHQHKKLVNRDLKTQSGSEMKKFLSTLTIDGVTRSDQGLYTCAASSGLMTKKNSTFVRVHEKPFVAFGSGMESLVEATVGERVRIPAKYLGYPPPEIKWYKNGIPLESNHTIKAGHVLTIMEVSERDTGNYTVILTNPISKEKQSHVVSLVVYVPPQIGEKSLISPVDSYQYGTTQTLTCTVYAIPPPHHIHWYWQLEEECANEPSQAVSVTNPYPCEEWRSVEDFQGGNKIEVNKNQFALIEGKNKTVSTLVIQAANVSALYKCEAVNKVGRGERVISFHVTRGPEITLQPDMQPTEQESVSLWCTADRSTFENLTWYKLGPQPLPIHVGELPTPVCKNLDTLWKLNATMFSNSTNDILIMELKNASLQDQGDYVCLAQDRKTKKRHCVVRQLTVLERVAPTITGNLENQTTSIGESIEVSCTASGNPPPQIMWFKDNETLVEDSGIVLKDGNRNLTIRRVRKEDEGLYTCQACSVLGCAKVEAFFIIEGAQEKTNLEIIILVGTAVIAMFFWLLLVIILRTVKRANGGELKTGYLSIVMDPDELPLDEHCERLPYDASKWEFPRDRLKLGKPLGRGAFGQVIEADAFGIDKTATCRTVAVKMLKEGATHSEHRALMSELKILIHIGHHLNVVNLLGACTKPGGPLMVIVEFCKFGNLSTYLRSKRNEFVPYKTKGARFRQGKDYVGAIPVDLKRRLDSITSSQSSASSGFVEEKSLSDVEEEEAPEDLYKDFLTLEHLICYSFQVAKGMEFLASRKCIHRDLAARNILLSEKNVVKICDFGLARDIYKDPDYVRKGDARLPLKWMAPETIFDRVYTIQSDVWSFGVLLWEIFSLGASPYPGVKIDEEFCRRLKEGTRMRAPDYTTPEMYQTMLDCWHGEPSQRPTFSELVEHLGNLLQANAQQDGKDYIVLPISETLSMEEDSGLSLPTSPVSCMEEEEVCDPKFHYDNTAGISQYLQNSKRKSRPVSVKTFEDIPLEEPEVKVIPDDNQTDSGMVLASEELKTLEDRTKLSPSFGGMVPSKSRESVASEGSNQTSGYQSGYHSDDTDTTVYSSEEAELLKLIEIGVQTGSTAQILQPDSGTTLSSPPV

[15] = target: VEGFR3 (Homo sapiens, UniProt P35916); experiment: VEGFR3 biochemical assay; details: read-out: VEGFR3 AC50
Chain of VEGFR3 (P35916 25-1363, species assumed): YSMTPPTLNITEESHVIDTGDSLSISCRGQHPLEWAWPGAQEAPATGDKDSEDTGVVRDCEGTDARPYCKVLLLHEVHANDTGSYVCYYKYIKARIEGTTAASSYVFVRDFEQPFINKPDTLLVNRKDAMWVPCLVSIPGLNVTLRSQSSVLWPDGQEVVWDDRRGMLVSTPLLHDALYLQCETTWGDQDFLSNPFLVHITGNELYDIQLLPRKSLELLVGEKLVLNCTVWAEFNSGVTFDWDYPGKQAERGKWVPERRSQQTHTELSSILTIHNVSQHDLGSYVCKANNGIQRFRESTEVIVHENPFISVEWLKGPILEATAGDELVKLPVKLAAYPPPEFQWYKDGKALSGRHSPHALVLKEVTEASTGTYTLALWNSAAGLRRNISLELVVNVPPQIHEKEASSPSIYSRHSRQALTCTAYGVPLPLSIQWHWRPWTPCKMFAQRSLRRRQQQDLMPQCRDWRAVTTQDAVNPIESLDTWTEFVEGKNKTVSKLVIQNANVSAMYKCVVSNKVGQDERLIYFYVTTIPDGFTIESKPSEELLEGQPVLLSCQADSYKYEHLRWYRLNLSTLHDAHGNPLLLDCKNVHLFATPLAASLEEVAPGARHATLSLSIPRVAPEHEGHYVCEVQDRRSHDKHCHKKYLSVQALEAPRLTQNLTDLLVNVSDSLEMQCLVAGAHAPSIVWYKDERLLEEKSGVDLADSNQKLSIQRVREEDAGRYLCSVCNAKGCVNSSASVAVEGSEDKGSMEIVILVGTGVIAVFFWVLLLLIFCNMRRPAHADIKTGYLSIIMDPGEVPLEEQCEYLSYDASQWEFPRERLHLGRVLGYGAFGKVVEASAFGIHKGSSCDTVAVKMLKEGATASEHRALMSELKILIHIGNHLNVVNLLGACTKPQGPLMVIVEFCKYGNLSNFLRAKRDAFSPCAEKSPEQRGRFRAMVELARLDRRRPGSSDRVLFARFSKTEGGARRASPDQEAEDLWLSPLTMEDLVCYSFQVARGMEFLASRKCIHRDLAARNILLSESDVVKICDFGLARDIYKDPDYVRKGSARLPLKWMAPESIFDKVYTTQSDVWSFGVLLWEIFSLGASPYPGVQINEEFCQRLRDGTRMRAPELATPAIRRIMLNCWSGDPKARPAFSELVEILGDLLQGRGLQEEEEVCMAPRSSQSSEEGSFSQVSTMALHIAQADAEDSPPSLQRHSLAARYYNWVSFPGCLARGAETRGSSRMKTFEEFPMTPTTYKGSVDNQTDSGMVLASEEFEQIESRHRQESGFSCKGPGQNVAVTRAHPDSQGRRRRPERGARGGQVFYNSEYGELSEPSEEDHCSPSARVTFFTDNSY

[16] = target: VEGFR1 (Homo sapiens, UniProt P17948); experiment: VEGFR1 biochemical assay; details: read-out: VEGFR1 AC50
Chain of VEGFR1 (P17948 27-1338, species assumed): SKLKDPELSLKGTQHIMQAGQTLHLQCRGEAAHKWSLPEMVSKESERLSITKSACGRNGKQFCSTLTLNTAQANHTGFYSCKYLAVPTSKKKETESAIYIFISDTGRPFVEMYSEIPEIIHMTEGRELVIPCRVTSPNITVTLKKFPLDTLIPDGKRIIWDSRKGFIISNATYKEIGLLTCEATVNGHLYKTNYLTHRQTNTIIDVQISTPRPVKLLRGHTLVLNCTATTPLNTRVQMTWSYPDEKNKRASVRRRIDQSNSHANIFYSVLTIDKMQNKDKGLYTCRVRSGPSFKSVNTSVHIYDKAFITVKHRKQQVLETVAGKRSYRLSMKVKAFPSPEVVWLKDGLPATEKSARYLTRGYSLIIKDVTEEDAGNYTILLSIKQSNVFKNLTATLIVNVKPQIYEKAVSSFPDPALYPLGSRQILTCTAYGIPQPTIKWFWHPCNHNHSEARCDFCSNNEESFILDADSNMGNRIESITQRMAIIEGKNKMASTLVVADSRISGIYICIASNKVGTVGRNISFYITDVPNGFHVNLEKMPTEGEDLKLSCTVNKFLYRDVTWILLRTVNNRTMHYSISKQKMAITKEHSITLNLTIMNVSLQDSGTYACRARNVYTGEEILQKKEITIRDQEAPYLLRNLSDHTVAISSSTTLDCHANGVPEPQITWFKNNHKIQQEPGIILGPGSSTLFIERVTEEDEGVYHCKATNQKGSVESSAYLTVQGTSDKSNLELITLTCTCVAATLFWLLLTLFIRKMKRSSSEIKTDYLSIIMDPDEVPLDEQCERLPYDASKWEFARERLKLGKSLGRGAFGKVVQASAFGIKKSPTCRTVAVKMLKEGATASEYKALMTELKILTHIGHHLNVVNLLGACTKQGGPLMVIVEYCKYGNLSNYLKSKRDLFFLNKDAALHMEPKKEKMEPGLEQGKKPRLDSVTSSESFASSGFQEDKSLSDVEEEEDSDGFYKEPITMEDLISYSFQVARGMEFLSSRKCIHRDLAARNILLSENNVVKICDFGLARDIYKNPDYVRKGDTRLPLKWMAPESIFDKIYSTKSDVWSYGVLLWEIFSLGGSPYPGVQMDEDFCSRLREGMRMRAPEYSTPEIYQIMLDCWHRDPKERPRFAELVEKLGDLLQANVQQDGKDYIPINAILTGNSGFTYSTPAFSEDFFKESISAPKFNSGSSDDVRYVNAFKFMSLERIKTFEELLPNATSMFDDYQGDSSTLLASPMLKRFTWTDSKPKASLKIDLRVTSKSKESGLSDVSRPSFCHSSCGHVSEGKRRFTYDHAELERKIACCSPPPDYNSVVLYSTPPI
Description: as §5

[17] = target: T1, EphB2 (Homo sapiens, UniProt P29323); experiment: EphB2 biochemical assay; details: read-out: EphB2 AC50
T1 sequence (P29323 569-986 isoform P29323-2 limits assumed): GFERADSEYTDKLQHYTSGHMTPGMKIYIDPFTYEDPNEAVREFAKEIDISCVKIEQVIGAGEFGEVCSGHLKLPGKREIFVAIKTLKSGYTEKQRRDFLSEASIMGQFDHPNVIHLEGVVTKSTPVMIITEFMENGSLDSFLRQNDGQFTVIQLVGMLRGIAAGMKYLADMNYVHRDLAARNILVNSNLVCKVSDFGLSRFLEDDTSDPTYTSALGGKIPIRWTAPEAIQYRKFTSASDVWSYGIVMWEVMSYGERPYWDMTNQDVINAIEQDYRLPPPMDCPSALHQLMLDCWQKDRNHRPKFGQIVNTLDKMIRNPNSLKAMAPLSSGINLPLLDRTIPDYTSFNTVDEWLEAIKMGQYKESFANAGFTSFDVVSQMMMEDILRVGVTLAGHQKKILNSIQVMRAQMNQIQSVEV

[18] = target: PTEN (Homo sapiens, UniProt P60484); experiment: PTEN biochemical assay; details: read-out: PTEN AC50
Chain of PTEN (P60484 whole entry, species assumed): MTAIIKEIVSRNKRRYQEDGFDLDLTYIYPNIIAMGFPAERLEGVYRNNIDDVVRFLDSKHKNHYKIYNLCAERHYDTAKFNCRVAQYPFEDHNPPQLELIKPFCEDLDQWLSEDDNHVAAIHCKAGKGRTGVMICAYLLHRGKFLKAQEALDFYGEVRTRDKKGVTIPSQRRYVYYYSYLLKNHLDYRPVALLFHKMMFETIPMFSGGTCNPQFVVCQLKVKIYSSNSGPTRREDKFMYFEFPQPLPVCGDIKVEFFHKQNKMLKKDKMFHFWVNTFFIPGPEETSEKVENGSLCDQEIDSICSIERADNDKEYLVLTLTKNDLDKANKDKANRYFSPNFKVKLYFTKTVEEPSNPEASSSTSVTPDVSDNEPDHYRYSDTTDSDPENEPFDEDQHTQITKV

[19] = target: PI3Ka (Homo sapiens, UniProt P42336); experiment: PI3Ka biochemical assay
[20] = system: placental vascular remodeling; details: rats; correlated with decreased expression of TIE2 mRNA; ref Ishimura et al. 2009; cited from earlier work
[21] = system: VEGF expression and VEGFR2 phosphorylation; parameters: method as in Joussen et al. 2001; Satchi-Fainaro et al. 2005; details: ocular vasculature; ref Joussen et al. 2001; Satchi-Fainaro et al. 2005; cited from earlier work
[22] = system: murine pregnancy; details: administered early or late in murine pregnancy, respectively; ref Rutland et al. 2005; cited from earlier work
[23] = summed activity across 23 assays, 6 assay targets, reference antiangiogenic compounds
[24] = coculture of peripheral blood mononuclear cells and endothelial cells
[25] = ToxRefDB end points, ref U.S. EPA 2010b
[26] = species and reference printed with each result
[27] = read-out: TIE2 AC50, repeat of the TIE2 assay from the original data series

CC(C)c1cccc(C(C)C)c1N1C(=O)c2ccc(O)cc2C1=O [5HPP-33, 5-hydroxy-2-(2,6-diisopropylphenyl)-1H-isoindole-1,3-dione]
predicted vascular disruption from VBS rank [1]: second highest VBS | VBS [1, 23]: 6.61 | PAI-1 down-regulation LEC ([2]; both fibroblasts and bronchial epithelial cells): 20 µM | PAI-1 up- and down-regulation LEC [2]: 20 µM | inhibition of tube formation [3]: ~ 60% | VEGFR2 down-regulation LEC [4]: 20 µM | AC50 [5]: > 50 µM | AC50 in the TIE2 assay (in words) [5]: Neither compound affected the CXCL10 signal assay or produced an AC50 in the TIE2 assay | CCL2 down-regulation LEC [6, 24]: 0.625 µM | CCL2 down-regulation LEC ([6]; lowest effective concentration): 0.625 µM | uPAR up-regulation, effective concentration ([7]; bronchial epithelial cells): 1.25 µM | effects on uPAR, effective concentration ([7]; endothelial cell system): 10 µM | uPAR up- and down-regulation LEC [7]: 1.25 µM | effect on CXCL10 signal assay [8]: Neither compound affected

CC(C)N1C(=O)c2ccccc2NS1(=O)=O [Bentazone]
RAT Multigenerational [9, 25]: Kidney; Liver

N#Cc1nn(-c2c(Cl)cc(C(F)(F)F)cc2Cl)c(N)c1[S+]([O-])C(F)(F)F (stereo not shown) [Fipronil]
RAT/RABBIT Developmental [10]: No effe ct recorded | RAT Chronic [11]: KidneyNephropath y; Kidney_ AnyLesion; ThyroidGland_ AnyLesion, PreneoplasticL esion, Neoplasti cLesion; ThyroidProliferativeLesions; ThyroidTumors; Tumorigen | VTKB Results (peer-reviewed in vivo studies) ([12]; in vivo): Developmental Neurotoxi city: Zebrafish (Stehr e t al. 2006) | MOUSE Chronic ([13]; mouse, in vivo): LiverHypertrophy; LiverNec rosis; LiverProli ferativeLes ions; Liver_ AnyLes ion, PreneoplasticL esion | RAT Multigenerational ([9]; rat, in vivo): Epididymis; Fertili ty; LitterSize; LiveBir thPND1; Liver; Mating; Ovary; Thyroid; ViabilityPND4

C=CCOC(Cn1ccnc1)c1ccc(Cl)cc1Cl (stereo not shown) [Imazalil]
VTKB Results (peer-reviewed in vivo studies) [12, 26]: mammalian developmental toxicity

S=C([S-])NCCNC(=S)[S-].[Mn+2] [Maneb]
VBS ([1]; ToxCast chemicals of Table 2): 4.69 | AC50 [14]: 31 µM | AC50 [15]: 12 µM | AC50 [16]: 4.1 µM | AC50 [5, 27]: 8.08 µM | AC50 [17]: 23 µM | AC50 [18]: 0.9 µM

O=S(=O)(O)C(F)(F)C(F)(F)C(F)(F)C(F)(F)C(F)(F)C(F)(F)C(F)(F)C(F)(F)F [Perfluorooctanesulfonic acid]
VBS ([1]; ToxCast chemicals of Table 2): 3.48 | PI3Ka AC50 [19]: 6.5 µM | AC50 [14]: 50 µM | AC50 [15]: 8 µM | AC50 [16]: 8.2 µM | AC50 [5, 27]: 4.43 µM | AC50 [18]: 17 µM

O=C(O)C(F)(F)C(F)(F)C(F)(F)C(F)(F)C(F)(F)C(F)(F)C(F)(F)F [Perfluorooctanoic acid]
VBS ([1]; ToxCast chemicals of Table 2): 3.04 | VTKB Results (peer-reviewed in vivo studies) [12, 26]: mammalian developmental toxicity | AC50 [5]: 31.9 µM

Clc1cc2c(cc1Cl)Oc1cc(Cl)c(Cl)cc1O2 [TCDD, 2,3,7,8-tetrachlorodibenzo-p-dioxin]
placental vascular remodeling [20]: suppressed

CO[C@@H]1[C@H](OC(=O)NC(=O)CCl)CC[C@]2(CO2)[C@H]1[C@@]1(C)O[C@@H]1CC=C(C)C [TNP-470, O-[chloroacetyl-carbamoyl]fumagillol]
effect on VEGF expression and VEGFR2 phosphorylation [21]: significant decrease | pregnancy outcome [22]: spontaneous resorption and intrauterine growth restriction

CCc1ccc(C(=O)NN(C(=O)c2cc(C)cc(C)c2)C(C)(C)C)cc1 [Tebufenozide]
MOUSE Chronic [13, 25]: Spleen_ AnyLesion

O=C1CCC(N2C(=O)c3ccccc3C2=O)C(=O)N1 (stereo not shown) [Thalidomide]
predicted vascular disruption from VBS rank [1]: moderate vascular disruptor | VBS [1, 23]: 1.76 | PAI-1 up-regulation, effective concentration ([2]; fibroblasts): 40 µM | PAI-1 up- and down-regulation LEC [2]: 40 µM | inhibition of tube formation [3]: ~ 30% | AC50 [5]: > 50 µM | AC50 in the TIE2 assay (in words) [5]: Neither compound affected the CXCL10 signal assay or produced an AC50 in the TIE2 assay | CCL2 down-regulation LEC [6, 24]: 0.625 µM | CCL2 down-regulation LEC ([6]; lowest effective concentration): 0.625 µM | uPAR up-regulation, effective concentration ([7]; endothelial cells): 2.5 µM | uPAR up- and down-regulation LEC [7]: 2.5 µM | effect on CXCL10 signal assay [8]: Neither compound affected

CCC(C)(NC(=O)c1cc(Cl)c(C)c(Cl)c1)C(=O)CCl (stereo not shown) [Zoxamide]
RAT/RABBIT Developmental [10]: No effe ct recorded | RAT Chronic [11]: No effe ct re corded | MOUSE Chronic ([13]; mouse, in vivo): LungTumors; Lung_ AnyLesion, PreneoplasticL esion, Neoplasti cLesion; Tumorigen | RAT Multigenerational ([9]; rat, in vivo): No effe ct recorded

Mancozeb
VBS ([1]; ToxCast chemicals of Table 2): 3.00 | PI3Ka AC50 [19]: 20 µM | AC50 [14]: 5.9 µM | AC50 [15]: 1.3 µM | AC50 [16]: 19 µM | AC50 [5, 27]: 10.4 µM | AC50 [17]: 21 µM | AC50 [18]: 0.23 µM

Metiram-zinc
VBS ([1]; ToxCast chemicals of Table 2): 4.35 | PI3Ka AC50 [19]: 29 µM | AC50 [14]: 41 µM | AC50 [15]: 22 µM | AC50 [16]: 6.6 µM | AC50 [5, 27]: 15 µM | AC50 [18]: 12 µM
